Reference: patent publication US6869929B2, “Use of transcription factors for treating inflammation and other diseases” (Beth Israel Deaconess Medical Center, priority 2000, dated 2005)

Tests used:
Format in all cases: cell-based, human
COL2A1 = COL2A1 mRNA time course in C-28/I2 chondrocytes; conditions: by 2 h
COL2A1 promoter = test: COL2A1 promoter/intron deletion constructs, transient transfection in C-28/I2 cells; conditions: all five constructs -577, -530, -403, -131, -83/+127 bp, 18 h
Method: The COL2A1 sequence spanning −577 to +3428 bp (Goldring M B, et al, J Cell Biochem 1994;54:85-99, 39) was cloned into the pGL2-basic (pGL2B) luciferase reporter gene vector (Promega,) and named pGL2-COL2/4.0. Deletion constructs containing −577/+125 bp, −131/+125 bp, −87/+125 bp were prepared by enzyme digestion of pGL2-COL2/4.0 using PstI, ApaI, and PuuII, followed by ligation. For the deletion constructs −45/+125 bp, −83/+7 bp, and −45/+7 bp, PCR products were generated as described (Osaki et al.) and cloned into the pGL2-Basic luciferase vector. These reporter constructs were used as templates to generate point mutations or internal deletions by PCR mutagenesis employing the oligonucleotides listed in FIG. 16 and the QuikChange™ Site-Directed Mutagenesis Kit (Stratagene, La Jolla, Calif.). DNA fragments containing point mutations were then cloned into the pGL2B vector and confirmed by DNA sequencing using a G2 primer on pGL2 DNA. Deletions were also made in the −577/+127 bp COL2A1 promoter construct using the ExSite™ PCR-Based Site-Directed Mutagenesis Kit (Stratagene).
Transient transfection experiments were carried out in C-28/I2 cells using LipofectAMINE PLUS™ Reagent (Life Technologies). Cells were seeded in 6-well tissue culture plates at 3.5×10^5 cells/well in DMEM/F12 containing 10% FCS 24 h prior to transfection. For each well, 1 μg of COL2A1-luciferase construct, 6 μl of PLUS reagent and 92 μl of serum-free DMEM/F12 were mixed and incubated for 15 min at room temperature. LipofectAMINE+ reagent (4 μl) in 100 μl of serum-free medium was then added to each reaction mixture and incubation was continued for an additional 30 min at room temperature. Finally, the transfection mixture was combined with 800 μl of serum-free medium and the lipid-nucleic acid complex was transferred to the washed cell monolayer in each well. After incubation for 4 h at 37° C., the transfection mix was diluted with an equal volume of DMEM/F12 containing 2% Nutridoma-SP, and incubation continued for 18 h in the absence or presence of IL-1β. […] Cell lysates were prepared by extraction with 200 μl of Reporter Lysis Buffer (Promega) and the protein content was determined using the Coomassie Plus Protein Assay Reagent (PIERCE). Luciferase activities were determined by chemiluminescence assay using the Autolumat LB953 luminometer (EG&G Berthold, Oak Ridge, Tenn.), normalized to the amount of protein. Each data point was calculated as the mean±standard deviation for three independently transfected cultures from one representative of at least three experiments. […]
To localize the responses to IL-1β and ESE-1 in the COL2A1 promoter, we made several 5′-deletions of the −577/+127 bp promoter construct, which we had previously determined to be responsive to IL-1β.

ESE-1 promoter = ESE-1 promoter luciferase construct (pXP2/ESE-1) transfection; conditions: U-138 MG cells; 16 h
Method: Cotransfections of 3-8×10^5 cells were carried out with 600 ng reporter gene construct DNA and 200 ng expression vector DNA using LipofectAMINE PLUS (Gibco-BRL) for 16 hours as described (Oettgen, P., et al. et al., 1997, Mol Cell Biol 17:4419-33). Transfections were performed independently in duplicate and repeated 3 to 4 times with different plasmid preparations with similar results.
To investigate the molecular mechanism by which IL-1 β and LPS regulate ESE-1 expression, we examined the response of an ESE-1 promoter luciferase construct after transfection using two cytokine responsive non-epithelial cell types, U-138 MG human glial cells and RAW 264.7 cells, a murine macrophage cell line (Oettgen, P., et al. 1999, Genomics 55:358-62). Whereas the parental pXP2 vector was not stimulated by IL-1β, in U-138 MG cells, IL-1β increased ESE-1 promoter activity up to 5-fold (FIG. 12a). Similarly, LPS enhanced ESE-1 promoter activity ˜9-fold in RAW 264.7 cells (FIG. 12b).

ESE-1 = ESE-1 mRNA RT-PCR in RA synovial fibroblasts; conditions: 4th passage RA synovial fibroblasts
Method: Tissues from patients with rheumatoid arthritis (RA) were obtained as discarded materials from total joint replacement surgery or synovectomy. RA synovial tissue samples were cultured for the generation of adherent synovial fibroblasts. Dispersed synovial tissues were prepared by a previously published method (Goldring, S. R., et al. 1983. The synovial-like membrane at the bone-cement interface in loose total hip replacements and its proposed role in bone lysis. J Bone Joint Surg 65:575-84). Cells were subjected to 2-4 passages and stimulated with IL-1β (R&D Systems) at 100 pg/ml or with TNF-α (R&D Systems) at 5 ng/ml.
cDNAs were generated from 1 μg of total RNA using Ready-To-Go™ You-prime First-Strand Beads (Amersham Pharmacia Biotech Inc). RT-PCR amplifications of 0.1 μg cDNA were carried out using a MJResearch thermal cycler PTC-100 as follows: 5 min at 94° C., 20-37 cycles of 30 sec at 94° C., 30 sec at 56° C., and 30 sec at 72° C., followed by 5 min at 72° C. (Oettgen, P., et al. 2000, J Biol Chem 275:1216-25). The sequences of the human ESE-1 primers and the primers for human GAPDH were as described (Oettgen, P., et al. 1999, J Biol Chem 274:29439-52).
The synovium in RA is comprised of heterogeneous cell populations including monocyte/macrophages, lymphocytes and synovial fibroblasts. To evaluate whether ESE-1 expression in synovial fibroblasts is regulated by proinflammatory cytokines, 4th passage synovial fibroblasts isolated from RA synovium were stimulated for different times with IL-1β in the absence or presence of indomethacin. […] They also indicate that cytokine-induced prostaglandins may modulate steady state ESE-1 mRNA levels. […] We, therefore, focused our attention in further studies on IL-1β.

**Q.** “IL-1β: interleukin-1 beta, proinflammatory cytokine” was tested. Which “COL2A1 mRNA levels” value (COL2A1) did it give?
**A.** Its value is “strongly inhibited”.

**Q.** What about the “inhibition of COL2A1 promoter constructs” value (COL2A1 promoter) of the same substance?
**A.** The value was “at least 50%”.

**Q.** And the “increase in ESE-1 promoter activity” value (ESE-1 promoter)?
**A.** The value was “up to 5 fold”.

**Q.** And the “ESE-1 mRNA expression, agent alone” value (ESE-1)?
**A.** The value was “strongly induced transient ESE-1 expression”.
